One assay concerns the target T1, Thymidylate kinase (Mycobacterium tuberculosis, UniProt P9WKE1).
T1 sequence (P9WKE1 whole entry): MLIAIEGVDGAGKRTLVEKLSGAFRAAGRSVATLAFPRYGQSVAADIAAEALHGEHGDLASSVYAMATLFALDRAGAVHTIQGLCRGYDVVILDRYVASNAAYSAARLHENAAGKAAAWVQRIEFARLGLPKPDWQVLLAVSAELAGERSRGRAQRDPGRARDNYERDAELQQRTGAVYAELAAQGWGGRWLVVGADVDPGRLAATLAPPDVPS
Nature of the assay: Inhibition of Mycobacterium tuberculosis thymidine monophosphate kinase by enzyme-coupling based spectrophotometric assay.

Assay [1] deals with T2, Thymidylate kinase (Mycobacterium tuberculosis) (UniProt P9WKE1).
T2 sequence (whole entry): T1 sequence (P9WKE1 whole entry)
The experiment in a line: Inhibition of Mycobacterium tuberculosis thymidine monophosphate kinase at 2.4 mM by enzyme-coupling based spectrophotometric assay.

Assay [2] has as its target T2, Thymidylate kinase (Mycobacterium tuberculosis). The experiment in a line: Inhibition of Mycobacterium tuberculosis thymidine monophosphate kinase at 2.6 mM by enzyme-coupling based spectrophotometric assay.

pKi: −log10 of the molar value. Activity calls are given as the source filed them. The calls are words filed in the database; no cut-off is given here.

The molecule `CNS(=O)(=O)CC[C@H]1O[C@@H](n2cc(C)c(=O)[nH]c2=O)C[C@@H]1O` showed a pKi at Thymidylate kinase of 3.62. Still for that read-out and setting: in the case of `Cc1cn([C@H]2C[C@H](O)[C@@H](CCc3nnn[nH]3)O2)c(=O)[nH]c1=O` it was 4.15. `O=c1[nH]c(=O)n([C@H]2C[C@H](O)[C@@H](CCc3nnn[nH]3)O2)cc1CO`: the inhibition entry in assay [1] was “inactive”.

In turn, `Cc1cn([C@H]2C[C@H](O)[C@@H](CCC#N)O2)c(=O)[nH]c1=O` gave a pKi at Thymidylate kinase of 4.32.

`N#CCC[C@H]1O[C@@H](n2cc(CO)c(=O)[nH]c2=O)C[C@@H]1O`: the inhibition entry in assay [2] is “inactive”.

`Cc1cn([C@H]2C[C@H](O)[C@@H](CCS(C)(=O)=O)O2)c(=O)[nH]c1=O` had a pKi at Thymidylate kinase of 3.47.

By pKi is commonly meant the negative decadic logarithm of the Ki, by convention in mol/L. Read a low pKi as a high Ki.

These data come from ChEMBL document CHEMBL2311302, “Synthesis and evaluation of 5'-modified thymidines and 5-hydroxymethyl-2'-deoxyuridines as Mycobacterium tuberculosis thymidylate kinase inhibitors” (Bioorg Med Chem, 2013).
